# Data taken from US20110195910A1, “USE OF TOCOTRIENOL COMPOSITION FOR THE PREVENTION OF CANCER” (DAVOS LIFE SCIENCE PTE. LTD., priority 2008, published 2011).
# System: G361 cells
# Assay: Matrigel-invasion assay, G361 cells
# Format: cell-based
# Conditions: γ-T3 at IC50 and IC85
# Protocol: 1.1.4 Matrigel-invasion assay—Matrigel-invasion assay was performed according to a previously published method with modifications. Briefly, cells were pre-incubated in a serum-free RPMI 1640 medium with or without γ-T3 isomers for 24 hrs. Cells (2.5×10^5) resuspended in 500 μl of serum-free RPMI 1640 containing 0.1% bovine serum albumin (BSA) were then added to the upper chamber of a 8 μm pore size insert (Millipore, Bedford, Mass.) manually coated with Matrigel (0.5 mg/ml) (BD Bioscience, Bedford, Mass.). Five hundred μl of invasion buffer containing fibronectin (10 μg/ml) and RPMI 1640 supplemented with 10% FCS were added in the lower chamber as a chemo-attractant. Cells were incubated at 37° C. for 24 hrs in 5% CO2 humidified conditions. At the end of incubation period, inserts were stained with Diff-Quick staining solution (Fischer Scientific). Non-invaded cells on the inside of the insert were scraped off with a cotton swab. Cell invasions were then examined by a phase-contrast microscope. The invaded cells were extracted using extraction buffer (Millipore, Bedford, Mass.) and the cell number was estimated based on absorbance at 595 nm.
smiles,measurement,value
"CC(C)=CCC/C(C)=C/CC/C(C)=C/CCC1(C)CCc2cc(O)c(C)c(C)c2O1 (stereo not shown) [γ-T3, 7,8-dimethyltocotrienol]",invasion capability compared to untreated control,2 -time lower
